From patent US20060019964A1, “Compounds” (priority 2002, published 2006)

Assays:
Rat pharmacokinetics = assay type: in vivo, male CD Sprague Dawley rats
Method: Compounds were dosed to male CD Sprague Dawley rats by single intravenous or oral administration at a nominal dose level of 1 mg/kg and 3 mg/kg respectively. Compounds were formulated in 5% DMSO,45% PEG200,50% water. An intravenous profile was obtained by taking serial or terminal blood samples at 0.083, 0.25, 0.5, 1, 2, 4, and 7 hours post dose. An oral profile was obtained by taking serial or terminal blood samples at 0.25, 0.5, 1, 2, 4, 7 and 12 hours post dose. Blood samples were taken directly into heparinised tubes. Blood samples were prepared by protein precipitation and subjected to quantitative analysis by LC-MS/MS using compound-specific mass transitions. Drug concentration-time profiles were generated and non-compartmental PK analysis used to generate estimates of half-life, clearance, volume of distribution and oral bioavailability.

Dog pharmacokinetics = assay type: in vivo, male Beagle dogs
Method: Compounds were dosed to male Beagle dogs by single intravenous or oral administration at a nominal dose level of 1 mg/kg and 2 mg/kg respectively. The study was carried out according to a crossover design such that the same dog was used for both dosing events and the dosing events occurred 1 week apart. Compounds were formulated in 5% DMSO,45% Peg200,50% water. An intravenous profile was obtained by taking serial blood samples at 0.083, 0.25, 0.5, 0.75, 1, 2, 4, 6 & 12 hr post dose. An oral profile was obtained by taking serial blood samples at 0.25, 0.5, 0.75, 1, 2, 4, 6, 12 & 24 hr post dose. Blood samples were taken directly into heparinised tubes. Blood samples were prepared by protein precipitation and subjected to quantitative analysis by LC-MS/MS using compound-specific mass transitions. Drug concentration-time profiles were generated and non-compartmental PK analysis used to generate estimates of half-life, clearance, volume of distribution and oral bioavailability.

CNS penetration = assay type: in vivo, male CD Sprague Dawley rats; conditions: male, CD Sprague Dawley, brain; rat, 1 mg/kg intravenous, 5 minutes post-dose; described as low CNS penetration; read-out: CNS penetration (compound in brain tissue)
Method: Compounds were dosed intravenously at a nominal dose level of 1 mg/kg to male CD Sprague Dawley rats. Compounds were formulated in 5% DMSO/45% PEG200/50% water. Blood samples were taken under terminal anaesthesia with isoflurane at 5 minutes post-dose and the brains were also removed for assessment of brain penetration. Blood samples were taken directly into heparinised tubes. Blood samples were prepared for analysis using protein precipitation and brain samples were prepared using extraction of drug from brain by homogenisation and subsequent protein precipitation. The concentration of parent drug in blood and brain extracts was determined by quantitative LC-MS/MS analysis using compound-specific mass transitions.

histamine H3 receptor = target: T1, histamine H3 receptor (Homo sapiens, UniProt Q9Y5N1); assay: Histamine H3 functional antagonist assay ([35S]-GTPγS, CHO cell membranes); assay type: biochemical; conditions: functional antagonism vs histamine EC80, GTPγS; read-out: average pki (pKb) at H3 (converted)
T1 construct: expressed in transfected cells; host or cells: CHO K1 cells carrying pSwitch, transfected with pGeneH3, induced with mifepristone; clone 3H3; membrane preparation
From the text: 2. H3 Receptor Cell Line Generation, Membrane Preparation and Functional GTPγS Assay Protocols
Generation of Histamine H3 Cell Line
The histamine H3 cDNA was isolated from its holding vector, pcDNA3.1 TOPO (InVitrogen), by restriction digestion of plasmid DNA with the enzymes BamH1 and Not-1 and ligated into the inducible expression vector pGene (InVitrogen) digested with the same enzymes. The GeneSwitch™ system (a system where in transgene expression is switched off in the absence of an inducer and switched on in the presence of an inducer) was performed as described in U.S. Pat. Nos. 5,364,791; 5,874,534; and 5,935,934. […]
10-14 days post selection 10 nM Mifepristone (InVitrogen), was added to the culture medium to induce the expression of the receptor. […] Receptor bound antibody was detected by incubation of the cells for 60 minutes on ice with a goat anti rabbit antibody, conjugated with Alexa 488 fluorescence marker (Molecular Probes). Following two further washes with Sorting Medium, cells were filtered through a 50 μm Filcon™ (BD Biosciences) and then analysed on a FACS Vantage SE Flow Cytometer fitted with an Automatic Cell Deposition Unit. […]

human H1 receptor = target: T2, human H1 receptor (Homo sapiens, UniProt P35367); assay: Histamine H1 functional antagonist assay (FLIPR); assay type: cell-based; conditions: functional antagonism vs histamine EC80, FLIPR, CHO cells; read-out: average pki (pKb) at H1 (converted)
T2 construct: expressed in transfected cells
Method: H1 Receptor Cell Line Generation and FLIPR Assay Protocol
1. Generation of Histamine H1 Cell Line
The human H1 receptor was cloned using known procedures described in the literature [Biochem. Biophys. Res. Commun. 1994, 201(2), 894]. Chinese hamster ovary cells stably expressing the human H1 receptor were generated according to known procedures described in the literature [Br. J. Pharmacol. 1996, 117(6), 1071].
Histamine H1 Functional Antagonist Assay […]
10 μl of test compound, diluted to the required concentration in Tyrodes buffer+probenecid (or 10 μl Tyrodes buffer+probenecid as a control) was added to each well and the plate incubated for 30 min at 37° C., 5% CO2. The plates were then placed into a FLIPR™ (Molecular Devioes, UK) to monitor cell fluorescence (λex=488 nm, λEM=540 nm) in the manner described in Sullivan et al. (In: Lambert DG (ed.), Calcium Signaling Protocols, New Jersey: Humana Press, 1999, 125-136) before and after the addition of 10 μl histamine at a concentration that results in the final assay concentration of histamine being EC80.
Functional antagonism is indicated by a suppression of histamine induced increase in fluorescence, as measured by the FLIPR™ system (Molecular Devices). By means of concentration effect curves, functional affinities are determined using standard pharmacological mathematical analysis.

T1 sequence (Q9Y5N1 whole entry, species assumed): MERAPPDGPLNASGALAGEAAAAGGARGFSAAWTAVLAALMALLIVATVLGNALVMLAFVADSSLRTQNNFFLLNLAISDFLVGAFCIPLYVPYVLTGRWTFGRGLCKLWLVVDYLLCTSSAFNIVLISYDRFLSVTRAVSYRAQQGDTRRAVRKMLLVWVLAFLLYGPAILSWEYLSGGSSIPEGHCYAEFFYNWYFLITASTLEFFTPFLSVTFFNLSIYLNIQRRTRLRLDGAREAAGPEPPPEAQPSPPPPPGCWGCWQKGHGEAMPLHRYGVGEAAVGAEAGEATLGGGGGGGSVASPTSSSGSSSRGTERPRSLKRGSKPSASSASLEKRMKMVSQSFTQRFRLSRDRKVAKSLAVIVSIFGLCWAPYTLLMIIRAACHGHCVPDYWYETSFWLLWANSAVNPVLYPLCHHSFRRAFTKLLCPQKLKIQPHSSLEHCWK
T2 sequence (P35367 whole entry): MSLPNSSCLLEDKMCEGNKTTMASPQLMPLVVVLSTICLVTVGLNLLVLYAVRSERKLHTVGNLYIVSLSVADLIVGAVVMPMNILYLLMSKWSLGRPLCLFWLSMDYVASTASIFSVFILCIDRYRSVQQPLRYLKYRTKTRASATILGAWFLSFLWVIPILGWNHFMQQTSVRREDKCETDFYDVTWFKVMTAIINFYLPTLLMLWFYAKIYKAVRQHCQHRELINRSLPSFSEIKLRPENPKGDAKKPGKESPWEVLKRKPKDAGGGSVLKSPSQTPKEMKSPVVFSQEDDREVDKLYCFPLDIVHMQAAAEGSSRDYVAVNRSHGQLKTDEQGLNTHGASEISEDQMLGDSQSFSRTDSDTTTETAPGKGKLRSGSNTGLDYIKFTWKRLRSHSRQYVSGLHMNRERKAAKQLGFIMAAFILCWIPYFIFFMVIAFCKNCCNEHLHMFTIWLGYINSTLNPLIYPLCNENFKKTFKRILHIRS

- clearance (Rat pharmacokinetics; male, CD Sprague Dawley, whole blood, 1 mg/kg intravenous): ~29 mL/min/kg
- half-life (Rat pharmacokinetics; male, CD Sprague Dawley, whole blood, IV route, 1 mg/kg): ~2 h
- oral bioavailability in the rat (Rat pharmacokinetics; oral 3 mg/kg vs intravenous 1 mg/kg): greater than 50 %F
- clearance (Dog pharmacokinetics; male, Beagle, whole blood, 1 mg/kg intravenous): ~10 mL/min/kg
- half-life (Dog pharmacokinetics; male, Beagle, whole blood, IV route, 1 mg/kg): ~5 h
- oral bioavailability in the dog (Dog pharmacokinetics; oral 2 mg/kg vs intravenous 1 mg/kg): about 99 % F
- concentration at 5 min (CNS penetration): < 100 ng/g
- Ki (histamine H3 receptor): ~0.251 nM
- Ki (human H1 receptor): ~2510 nM
SMILES: CS(=O)(=O)c1ccc(C(=O)N2CCN(c3ccc(OC4CCN(C5CCC5)CC4)cc3)CC2)cc1 [compound of formula (I), 1-{4-[(1-Cyclobutyl-4-piperidinyl)oxy]phenyl}4-{[4-(methylsulfonyl)phenyl]carbonyl}piperazine]
